Our source for the IC50 values is patent US20240287080A1 (IDEAYA Biosciences Inc., priority 2021, published 2024).

SMILES strings stand for the structures.

T1 sequence (O75417 1-899): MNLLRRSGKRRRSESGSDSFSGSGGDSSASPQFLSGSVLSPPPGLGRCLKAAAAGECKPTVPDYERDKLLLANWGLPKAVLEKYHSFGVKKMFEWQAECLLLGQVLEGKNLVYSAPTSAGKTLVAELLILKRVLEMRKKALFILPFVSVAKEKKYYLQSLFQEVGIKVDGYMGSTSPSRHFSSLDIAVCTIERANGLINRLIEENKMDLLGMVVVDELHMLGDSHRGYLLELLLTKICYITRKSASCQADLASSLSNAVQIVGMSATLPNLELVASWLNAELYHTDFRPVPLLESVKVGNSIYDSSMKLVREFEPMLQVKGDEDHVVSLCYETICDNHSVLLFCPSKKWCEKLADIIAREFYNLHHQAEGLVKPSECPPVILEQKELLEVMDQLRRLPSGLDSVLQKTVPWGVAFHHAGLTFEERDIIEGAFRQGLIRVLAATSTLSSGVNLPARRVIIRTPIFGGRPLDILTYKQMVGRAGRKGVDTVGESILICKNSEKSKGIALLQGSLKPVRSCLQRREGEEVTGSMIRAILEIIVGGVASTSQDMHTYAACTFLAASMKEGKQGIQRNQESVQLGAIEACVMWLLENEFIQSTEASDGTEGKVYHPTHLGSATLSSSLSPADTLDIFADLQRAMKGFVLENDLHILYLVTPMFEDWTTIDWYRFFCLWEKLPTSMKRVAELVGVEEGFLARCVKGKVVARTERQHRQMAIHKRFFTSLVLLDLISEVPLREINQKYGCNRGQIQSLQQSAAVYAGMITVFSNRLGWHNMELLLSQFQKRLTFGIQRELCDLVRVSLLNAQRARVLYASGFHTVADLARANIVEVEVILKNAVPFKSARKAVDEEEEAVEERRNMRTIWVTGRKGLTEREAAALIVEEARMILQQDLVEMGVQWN

The first assay has as its target T1, Pol theta (1-899) (Homo sapiens, UniProt O75417).
T1 construct: Pol theta (1-899) (5 nM) in assay buffer
The assay can be described thus: Pol theta ATPase activity, NADH oxidation-coupled enzymatic assay (ATPase NADH coupling: Standard Screening: hPolQ). The class given is biochemical. To be noted: Pol theta (1-899) 5 nM, NADH oxidation-coupled ATPase assay; compounds of Table 3. As for the experimental part:
The ability of the compounds of Formula (I) or Table 1 to inhibit ATPase activity of Pol theta (1-899) was determined using the assay described below. Pol Theta ATPase activity was determined by measuring the rate of ATP turn over in a NADH oxidation-coupled enzymatic assay. 10-point dilution series of compounds were used in a 384 well format for the inhibition assays. Pol theta (1-899) (5 nM) in assay buffer (20 mM Tris HCl (pH 7.80), 80 mM KCl, 10 mM MgCl2, 1 mM DTT, 0.01% BSA, 0.01% Tween, 5% glycerol) was transferred to the test wells (20 μL), except the low control wells (20 μL of assay buffer was added to the low control wells). The plate was then incubated at room temperature for 15 min. An equal volume (20 μL) of 100 μM ATP, 300 nM […] (single-stranded DNA (ssDNA) containing 50 thymine bases), 300 μM NADH, 6 mM PEP, 10 U/mL lactate dehydrogenase and 20 U/mL pyruvate kinase in assay buffer was added to all the test wells. The plate was then centrifuged at 1000 rpm for 1 min. The reaction was monitored for 60 min by measuring absorbance (λ=340 nm) in a Tecan Spark multimode plate reader every minute. The high control (DMSO with enzyme) with low absorbance intensity represents no inhibition of ATPase reaction while the low control (DMSO with buffer) with high absorbance intensity represents full inhibition of ATPase activity. Slope of the reaction progress curves were used to calculate the rate of ATP hydrolysis. The rates were used to determine the percent inhibition using a four-parameter inhibition model to generate IC50, Hill slope and max inhibition.
In the case of `COc1cnc(C)c(F)c1-c1cc(C)ncc1C(=O)Nc1nnc(O[C@H]2CC[C@@H](CO)CC2)s1` [Example 257, 3′-fluoro-N-(5-(((1s,4s)-4-(hydroxymethyl)cyclohexyl)oxy)-1,3,4-thiadiazol-2-yl)-5′-methoxy-2′,6-dimethyl-[4,4′-bipyridine]-3-carboxamide], the IC50 was at most 200 nM.
Still for that read-out and setting: next, `COc1cnc(Br)cc1-c1cc(C)ncc1C(=O)Nc1nnc(O[C@@H]2CCC[C@@H](O)C2)s1` [Example 284, 2′-bromo-N-(5-(((1R,3R)-3-hydroxycyclohexyl)oxy)-1,3,4-thiadiazol-2-yl)-5′-methoxy-6-methyl-[4,4′-bipyridine]-3-carboxamide]: at most 200 nM; `COc1cnc(C)cc1-c1cc(C)ncc1C(=O)Nc1nnc(O)s1` [Example 325, N-(5-hydroxy-1,3,4-thiadiazol-2-yl)-5′-methoxy-2′,6-dimethyl-[4,4′-bipyridine]-3-carboxamide]: 1000 to 10000 nM.
On the same count and under the same terms, next, `COc1nnc(NC(=O)c2cnc(C)cc2-c2ccc(F)c(C(F)(F)F)c2)s1` [Example 450, 4-[4-fluoro-3-(trifluoromethyl)phenyl]-N-(5-methoxy-1,3,4-thiadiazol-2-yl)-6-methylpyridine-3-carboxamide]: at most 200 nM; `COc1nnc(NC(=O)c2cnc(C)cc2-c2cc(C)cc(C)c2)s1` [Example 358, 4-(3,5-dimethylphenyl)-N-(5-methoxy-1,3,4-thiadiazol-2-yl)-6-methylpyridine-3-carboxamide]: 500 to 1000 nM.
Compound `COc1nnc(NC(=O)c2cnc(C)cc2-c2cccc(OC)c2F)s1` [Example 446, 4-(2-fluoro-3-methoxyphenyl)-N-(5-methoxy-1,3,4-thiadiazol-2-yl)-6-methylpyridine-3-carboxamide] returned an IC50 of 1000 to 10000 nM.
The same measure, in the same setting: next, `COc1nnc(NC(=O)c2cnc(C)cc2-c2cccc(C(=O)N(C)C)c2)s1` [Example 336, 4-[3-(dimethylcarbamoyl)phenyl]-N-(5-methoxy-1,3,4-thiadiazol-2-yl)-6-methylpyridine-3-carboxamide]: 1000 to 10000 nM; `COc1nnc(NC(=O)c2cnc(C)cc2-c2cnccc2C(F)(F)F)s1` [Example 481, N-(5-methoxy-1,3,4-thiadiazol-2-yl)-6′-methyl-4-(trifluoromethyl)-[3,4′-bipyridine]-3′-carboxamide]: 1000 to 10000 nM; `COc1nnc(NC(=O)c2cnc(C)cc2-c2cccc(F)c2C#N)s1` [Example 430, 4-(2-cyano-3-fluorophenyl)-N-(5-methoxy-1,3,4-thiadiazol-2-yl)-6-methylpyridine-3-carboxamide]: 500 to 1000 nM.
Still for that read-out and setting: next, `COc1cnc(Cl)cc1-c1cc(C)ncc1C(=O)Nc1nnc(O[C@@H]2C[C@H](F)CN(C(C)C)C2)s1` (single isomer, unassigned) [Example 283]: 200 to 500 nM.
`COc1cnc(C)c(F)c1-c1cc(C)ncc1C(=O)Nc1nnc(O[C@H]2C[C@H]3C[C@@H]2C[C@@H]3O)s1` (single isomer, unassigned) [Example 261] came in with an IC50 of at most 200 nM.
On to `COc1nnc(NC(=O)c2cc(N(C)C)ncc2-c2cc(Cl)ncc2OC)s1` [Example 311, 2′-chloro-6-(dimethylamino)-5′-methoxy-N-(5-methoxy-1,3,4-thiadiazol-2-yl)-[3,4′-bipyridine]-4-carboxamide], for which the IC50 was 200 to 500 nM.
The same measure, in the same setting: under `CCc1cc(C(=O)Nc2nnc(OC)s2)c(-c2cc(Cl)ncc2OC)cn1` [Example 270, 2′-chloro-6-ethyl-5′-methoxy-N-(5-methoxy-1,3,4-thiadiazol-2-yl)-[3,4′-bipyridine]-4-carboxamide] stands 200 to 500 nM; under `COc1nnc(NC(=O)c2cnc(C)cc2-c2ccccc2)s1` [Example 329, N-(5-methoxy-1,3,4-thiadiazol-2-yl)-6-methyl-4-phenylpyridine-3-carboxamide], 1000 to 10000 nM.
The same measure, in the same setting: next, `COc1nnc(NC(=O)c2ccc(C)cc2-c2cc(Cl)ncc2OC)s1` [Example 279, 2-(2-chloro-5-methoxypyridin-4-yl)-N-(5-methoxy-1,3,4-thiadiazol-2-yl)-4-methylbenzamide]: at most 200 nM.
Still for that read-out and setting: next, `COc1cc(C(=O)Nc2nnc(OC)s2)c(-c2cc(Cl)ncc2OC)cn1` [Example 242, 2′-chloro-5′,6-dimethoxy-N-(5-methoxy-1,3,4-thiadiazol-2-yl)-[3,4′-bipyridine]-4-carboxamide]: at most 200 nM.

The assay is the same for the next values; noted with them: Table 4; Pol theta (1-899) 5 nM, ATP, dT50 ssDNA.
In turn, `CCOc1nnc(NC(=O)c2cnc(C)cc2-c2cc(Cl)ncc2OC)s1` [Example 28, 2′-chloro-N-(5-ethoxy-1,3,4-thiadiazol-2-yl)-5′-methoxy-6-methyl-(4,4′-bipyridine)-3-carboxamide] showed an IC50 of at most 200 nM.
On the same count and under the same terms, under `COc1nnc(NC(=O)c2cnc(C)cc2-c2ccccc2OC(F)F)s1` [Example 36, 4-(2-(difluoromethoxy)phenyl)-N-(5-methoxy-1,3,4-thiadiazol-2-yl)-6-methylnicotinamide] stands at most 200 nM; under `COc1nnc(NC(=O)c2cnc(C)cc2-c2cc(C(F)F)ncc2OC)s1` [Example 70, 2′-(difluoromethyl)-5′-methoxy-N-(5-methoxy-1,3,4-thiadiazol-2-yl)-6-methyl-(4,4′-bipyridine)-3-carboxamide], at most 200 nM.
Turning to `COc1cnc(Cl)cc1-c1cc(C)ncc1C(=O)Nc1nnc(O[C@H]2CCO[C@H]2C)s1` (single isomer, unassigned) [Example 76, 2′-chloro-5′-methoxy-6-methyl-N-(5-(((2r,3r)-2-methyltetrahydrofuran-3-yl)oxy)-1,3,4-thiadiazol-2-yl)-(4,4′-bipyridine)-3-carboxamide], the IC50 is at most 200 nM.
Still for that read-out and setting: next, `COc1nnc(NC(=O)c2cnc(C)cc2-c2cc(C(F)(F)F)ncc2OC)s1` [Example 57, 5′-methoxy-N-(5-methoxy-1,3,4-thiadiazol-2-yl)-6-methyl-2′-(trifluoromethyl)-(4,4′-bipyridine)-3-carboxamide]: at most 200 nM; `COc1cccc(F)c1-c1cc(C)ncc1C(=O)Nc1nnc(O)s1` [Example 3, 4-(2-fluoro-6-methoxyphenyl)-N-(5-hydroxy-1,3,4-thiadiazol-2-yl)-6-methylnicotinamide]: 1000 to 10000 nM.
Still for that read-out and setting: next, `COc1cnc(Cl)cc1-c1cc(C)ncc1C(=O)Nc1nnc(OCC(C)(F)F)s1` [Example 20, 6′-chloro-N-(5-(2,2-difluoropropoxy)-1,3,4-thiadiazol-2-yl)-3′-methoxy-6-methyl-4,4′-bipyridine-3-carboxamide]: at most 200 nM; `COc1nnc(NC(=O)c2cnc(C)cc2-c2ccnc(Cl)c2)s1` [Example 75, 2′-chloro-N-(5-methoxy-1,3,4-thiadiazol-2-yl)-6-methyl-(4,4′-bipyridine)-3-carboxamide]: at most 200 nM; `COc1nnc(NC(=O)c2cnc(C)cc2-c2cc(Cl)ccc2OC)s1` [Example 9, 4-(5-chloro-2-methoxyphenyl)-N-(5-methoxy-1,3,4-thiadiazol-2-yl)-6-methylnicotinamide]: at most 200 nM.
Still for that read-out and setting: next, `COc1nnc(NC(=O)c2cnc(C)cc2-c2c(F)cccc2OC(F)F)s1` [Example 32, 4-(2-(difluoromethoxy)-6-fluorophenyl)-N-(5-methoxy-1,3,4-thiadiazol-2-yl)-6-methylnicotinamide]: at most 200 nM; `COc1nnc(NC(=O)c2cnc(C)cc2-c2cc(Cl)ncc2OC(F)F)s1` [Example 48, 2′-chloro-5′-(difluoromethoxy)-N-(5-methoxy-1,3,4-thiadiazol-2-yl)-6-methyl-(4,4′-bipyridine)-3-carboxamide]: at most 200 nM.

Staying with this assay, now noted: Table 5; Pol theta (1-899) 5 nM, ATP, dT50 ssDNA.
`Cc1cc(-c2cc(Cl)ncc2OC(F)F)c(C(=O)Nc2nnc(O[C@H]3COC4(CC4)C3)s2)cn1` (single isomer, unassigned) [Example 233] gave an IC50 of at most 200 nM.
Compound `COc1cnc(Cl)cc1-c1cc(C)ncc1C(=O)Nc1nnc(O[C@H]2CC[C@]3(CCO3)CC2)s1` (single isomer, unassigned) [Example 185, N-(5-(((4s, 7s)-1-oxaspiro(3.5)nonan-7-yl)oxy)-1,3,4-thiadiazol-2-yl)-2′-chloro-5′-methoxy-6-methyl-(4,4′-bipyridine)-3-carboxamide] registered an IC50 of at most 200 nM.
`COc1cnc(Cl)c(F)c1-c1cc(C)ncc1C(=O)Nc1nnc(O[C@H]2CC[C@H](O)CC2)s1` [Example 211, 2′-chloro-3′-fluoro-N-(5-(((1r,4r)-4-hydroxycyclohexyl)oxy)-1,3,4-thiadiazol-2-yl)-5′-methoxy-6-methyl-(4,4′-bipyridine)-3-carboxamide] returned an IC50 of at most 200 nM.
In turn, `Cc1cc(-c2cc(Cl)ncc2OC(F)F)c(C(=O)Nc2nnc(O[C@H]3CC[C@@](C)(O)CC3)s2)cn1` (single isomer, unassigned) [Example 220, 2′-chloro-5′-(difluoromethoxy)-N-(5-(((1s,4s)-4-hydroxy-4-methylcyclohexyl)oxy)-1,3,4-thiadiazol-2-yl)-6-methyl-(4,4′-bipyridine)-3-carboxamide] displayed an IC50 of at most 200 nM.
